# Measured values as given in patent publication US20030066100A1, “Capacitative calcium entry mechanism in porcine oocytes” (priority 2001, published 2003).
# Entries after “also recorded” stand apart in the source; their conditions may differ.
# Legend:
# Type in all cases: cell-based
# porcine oocytes [1] = assay: Divalent cation influx after InsP3 injection, Mn2+-quench technique
# Experimental: (§1) The oocytes were loaded with the Ca^2+ indicator dye fura-2 by being incubated in the presence of 2 μM acetoxymethyl ester form of the dye and 0.02% pluronic F-127 (both from Molecular Probes, Inc., Eugene, Oreg.) for 40-50 minutes. After incubation the oocytes were rinsed, exposed to various treatments and the changes in the intracellular free Ca^2+ concentration ([Ca^2+]i) were followed using a Photoscan-2 photon counting fluorescent microscope system (Nikon Corp., Tokyo, Japan) as described by Macháty et al., Biol Reprod 1997a; 56:921-930. Fluorescence was recorded by calculating the ratio of fura-2 fluorescence at 510 mn excited by UV light alternatively at 340 and 380 nm. Intracellular free Ca^2+ levels are presented as fluorescent ratio values with ratios of 1.2 and 6.5 representing 65 and 602 nM Ca^2+, respectively.
# To induce the release of Ca^2+ from the intracellular stores, the second messenger InsP3 was injected into the oocytes' cytoplasm using a microinjector (Narishige Co. Ltd., Tokyo, Japan). InsP3 was dissolved in carrier medium consisting of 10 mM Hepes and 100 μM EGTA buffered at pH 7.0. The amount injected was about 40 pl, which is 4% of the total cytoplasmic volume of ˜1000 pl. Microinjection was performed in HEPES-TL-PVA on a heated stage of a Nikon Diaphot inverted microscope (Nikon Corp., Tokyo, Japan).
# The onset of a divalent cation influx after a Ca^2+ transient was investigated by using the manganese (Mn^2+)-quench technique disclosed by Hallam et al., Biochem. J. 1988; 255:179-184. Release of Ca^2+ from the intracellular stores was stimulated by intracellular injection of approximately 40 pl of 2.5 μM InsP3, the InsP3 receptor agonist. As a Ca^2+ surrogate, Mn^2+ was added to the external medium. Mn^2+ was reported to be able to translocate across the plasma membrane, bind fura-2 and quench its fluorescence. This technique enables measurement of divalent cation influx even when Ca^2+ release from the internal stores is coincident. The entry of Mn^2+ into the cell was monitored by imaging the resulting quench in fura-2 fluorescence at 510 nm excited alternatively at 340 and 360 nm. While the signal resulting from the 340 nm excitation is [Ca^2+]i sensitive, at 360 nm fura-2 fluorescence is independent of [Ca^2+]i and any decrease in fluorescence is due only to Mn^2+ entry.
# porcine oocytes [2] = assay: Capacitative Ca2+ entry after store depletion and re-addition of Ca2+ (fura-2 fluorescence)
# Experimental: as §1
# (§2) A Ca^2+ influx was generated in porcine oocytes by the depletion of the intracellular Ca^2+ stores. […] It is routinely used to drain the intracellular stores of their Ca^2+ content. Fura-2-loaded oocytes were incubated in Ca^2+-free HEPES-TL-PVA medium in the presence of 10-50 μM thapsigargin for 3 hours to deplete intracellular Ca^2+ stores. After washing in Ca^2+-free medium (to remove thapsigargin and ensure that the intracellular stores remain empty), normal Ca^2+-containing medium was added to the oocytes and the changes in the [Ca^2+]i were measured. Oocytes incubated in Ca^2+-free HEPES-TL-PVA for 3 hours without thapsigargin were used to show the Ca^2+ entry under normal conditions, when the intracellular Ca^2+ stores were full.
# porcine oocytes [3] = assay: Ca2+ release by thapsigargin in Ca2+-free medium (fura-2 fluorescence)
# Experimental: as §1
# as §2, with “Oocytes incubated in Ca^2+-free HEPES-TL-PVA for 3 hours without thapsigargin were used to show the Ca^2+ entry under normal conditions, when the intracellular Ca^2+ stores were full.” left out
# porcine oocytes [4] = assay: Capacitative Ca2+ entry in oocytes expressing Drosophila trp; conditions: 1 mM La3+
# Description: The plasmid vector pBluescript KS, containing the Drosophila trp cDNA ctrp-9 downstream of the T7 promoter (a generous gift from C. Montell) was transfected into Escherichia coli DH5α cells. Plasmid DNA was isolated and linearized with the restriction endonuclease KpnI (Promega Corp., Madison, Wis.) and mRNA was transcribed from the cDNA with T7 polymerase using the RiboMAX™ Large Scale RNA Production System (Promega), following the manufacturer's recommendations. In order to produce capped RNA transcripts, the reaction was performed in the presence of 3 mM m^7G(5′)ppp(5′)G (Boehringer-Mannheim Corp., Indianapolis, Ind.). Purified RNA was precipitated with 0.3 M sodium acetate and ethanol. The pellet was resuspended in diethylpyrocarbonate (DEPC)-treated water containing RNasin (1 IU/μl; from Promega) to a final concentration of approximately 800 ng/μl and the samples were stored in 3 μl aliquots at −70° C.
# The Drosophila trp protein was expressed in porcine oocytes by injecting approximately 32 pg mRNA made by in vitro transcription of the cDNA and allowing 15 hours for translation. Control oocytes were injected with the carrier medium (DEPC-treated water). […] The baseline fluorescence of the oocytes was then recorded in Ca^2+-free HEPES-TL-PVA, and changes in [Ca^2+]i were measured for 20-30 minutes after the addition of Ca^2+-containing medium.
# [5] = 1 mM La3+, InsP3 microinjected, Mn2+ added
structure (smiles),measurement,setting,value
"O=P(O)(O)O[C@@H]1[C@H](O)[C@H](O)[C@@H](OP(=O)(O)O)[C@H](OP(=O)(O)O)[C@H]1O [InsP3, inositol 1,4,5-trisphosphate]",oocytes with rapid decline in fluorescence well below the basal value (Mn2+ entry),"porcine oocytes [1]; InsP3 microinjected, 3 mM Mn2+ in the external medium",14/14
same,oocytes with transient elevation in fluorescence at 340 nm excitation (increase in [Ca2+]i),porcine oocytes [1]; injection of about 40 pl of 2.5 μM InsP3,16 out of 16
C/C=C(/C)C(=O)O[C@H]1C(C)=C2[C@H]([C@@H]1OC(=O)CCCCCCC)[C@@](C)(OC(C)=O)C[C@H](OC(=O)CCC)[C@@]1(O)[C@H]2OC(=O)[C@@]1(C)O [thapsigargin],start of the increase in [Ca2+]i after adding the HEPES-TL-PVA medium,porcine oocytes [2]; after thapsigargin store depletion,0 to 300 s
same,oocytes showing Ca2+ entry (rise in [Ca2+]i) after re-addition of Ca2+,porcine oocytes [2]; stores emptied with thapsigargin for 3 hours in Ca2+-free medium,15 out of 18
same,change in [Ca2+]i,porcine oocytes [3]; 10-50 μM thapsigargin in Ca2+-free medium,induced an increase in [Ca^2+]i
same,increase in [Ca2+]i relative to 50 μM,"porcine oocytes [3]; 10 and 20 μM thapsigargin, Ca2+-free medium",slightly smaller increases in [Ca^2+]i
"[La+3] [La^3+, lanthanum]",block of Ca2+ entry-evoked [Ca2+]i increase,porcine oocytes [4],completely blocked
same,block of cation influx and decline in fluorescence at both wavelengths,porcine oocytes [1]; [5],totally blocked
same,oocytes in which fluorescence intensities stayed near the resting values,porcine oocytes [1]; [5],7/7
same,block of thapsigargin-evoked Ca2+ entry,porcine oocytes [2]; 1 mM La3+,totally inhibited; also recorded: completely blocked
same,oocytes in which thapsigargin-evoked Ca2+ entry was blocked,porcine oocytes [2]; 1 mM La3+,11/11
